Assay results from paper PMC12329534, “Sal is a proteobacterial bile acid aldolase that repurposes key thiolase catalytic residues for retroaldol cleavage of C5 steroid side chains” (The Journal of Biological Chemistry, 2025).

Key:
[1] = target: T1, 17-β-hydroxysteroid dehydrogenase (Hsd4A) (Rhodococcus jostii, UniProt Q0S7K5); assay: LC-MS/MS of product; NADH formation at […] nm; assay type: biochemical; conditions: 1 mM NAD+; substrate made in situ from cholyl-enoyl-CoA by CtShy–CtSal; 100 mM HEPES pH 7.5, 25 °C or 50 mM ammonium acetate pH 7.4
T1 construct: isolated enzyme; construct not described in main text
T1 sequence (Q0S7K5 1-305): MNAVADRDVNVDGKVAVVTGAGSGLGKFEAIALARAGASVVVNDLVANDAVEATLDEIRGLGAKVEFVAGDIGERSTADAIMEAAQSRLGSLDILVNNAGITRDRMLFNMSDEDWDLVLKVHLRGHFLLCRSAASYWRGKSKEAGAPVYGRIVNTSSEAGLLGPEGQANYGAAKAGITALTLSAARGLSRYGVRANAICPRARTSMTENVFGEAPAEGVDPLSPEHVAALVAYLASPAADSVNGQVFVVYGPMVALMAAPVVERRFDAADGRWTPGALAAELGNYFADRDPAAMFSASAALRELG

[2] = target: T2, CtShy–CtSal complex (CtSal steroid aldolase activity) (Comamonas testosteroni, UniProt B7X4S8); assay: CtSad-coupled NADH formation at […] nm; assay type: biochemical; conditions: apparent; 1 mM NAD+ and 7 nM CtSad for coupling, 100 mM HEPES pH 7.5, 25 °C
T2 construct: gene CtesDRAFT_PD3654; full-length CtShy–CtSal complex co-expressed in E. coli BL21 LOBSTR, His-tag purified; heterotetramer, 160 kDa by SEC (CtShy 35 kDa, CtSal 46 kDa); with Steroid hydratase Shy (DUF35/OB-fold and MaoC domain-containing protein)
T2 sequence (B7X4S8 1-404): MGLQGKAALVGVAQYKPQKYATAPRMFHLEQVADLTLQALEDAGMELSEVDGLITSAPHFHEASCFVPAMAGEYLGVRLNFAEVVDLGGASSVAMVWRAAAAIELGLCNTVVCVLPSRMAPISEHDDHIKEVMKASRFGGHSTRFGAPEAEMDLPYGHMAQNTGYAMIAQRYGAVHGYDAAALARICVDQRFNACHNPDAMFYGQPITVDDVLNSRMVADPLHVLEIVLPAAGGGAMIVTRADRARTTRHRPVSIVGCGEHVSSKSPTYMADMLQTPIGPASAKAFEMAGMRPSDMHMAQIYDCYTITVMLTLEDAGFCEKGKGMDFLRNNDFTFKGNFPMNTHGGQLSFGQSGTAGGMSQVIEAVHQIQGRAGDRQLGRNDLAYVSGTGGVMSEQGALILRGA
T2 sequence (B7X4S7 1-312 partner): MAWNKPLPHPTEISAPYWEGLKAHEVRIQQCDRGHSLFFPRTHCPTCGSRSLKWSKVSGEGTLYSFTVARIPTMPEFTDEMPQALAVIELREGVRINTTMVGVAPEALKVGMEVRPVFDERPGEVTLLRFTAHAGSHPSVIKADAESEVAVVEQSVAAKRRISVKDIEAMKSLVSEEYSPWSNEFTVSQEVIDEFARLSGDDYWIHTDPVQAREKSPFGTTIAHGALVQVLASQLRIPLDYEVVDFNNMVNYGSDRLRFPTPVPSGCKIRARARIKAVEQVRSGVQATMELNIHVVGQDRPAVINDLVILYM

[3] = target: T3, CtShy–CtSal complex (CtShy steroid hydratase activity) (Comamonas testosteroni, UniProt B7X4S7); assay: LC-MS/MS of products; Hsd4A-coupled NADH end point; assay type: biochemical; conditions: 50 mM ammonium acetate pH 7.4 (LC-MS) or 100 mM HEPES pH 7.5, 25 °C; NAD+ and excess Hsd4A
T3 construct: gene CtesDRAFT_PD3653; full-length CtShy–CtSal complex from E. coli BL21 LOBSTR, His-tag purified; MaoC domain of CtShy is the hydratase domain; with Steroid aldolase Sal (thiolase-like protein)
T3 sequence (B7X4S7 1-312): T2 sequence (B7X4S7 1-312 partner)

[4] = test system: T4, C[C@H](C(O)CC(=O)SCCNC(=O)CCNC(=O)[C@H](O)C(C)(C)COP(=O)(O)OP(=O)(O)OC[C@H]1O[C@@H](n2cnc3c(N)ncnc32)[C@H](O)[C@@H]1OP(=O)(O)O)[C@H]1CC[C@H]2[C@@H]3[C@H](O)C[C@@H]4C[C@H](O)CC[C@]4(C)[C@H]3C[C@H](O)[C@]12C; assay: purified protein; assay type: biochemical, Comamonas testosteroni; conditions: apparent, 1 mM NAD+ and 7 nM CtSad for coupling, 100 mM HEPES pH 7.5, 25 °C
T4 construct: full-length CtShy–CtSal complex co-expressed in E. coli BL21 LOBSTR, His-tag purified; heterotetramer, 160 kDa by SEC (CtShy 35 kDa, CtSal 46 kDa); with Steroid hydratase Shy (DUF35/OB-fold and MaoC domain-containing protein)

## C[C@H](C(O)CC(=O)SCCNC(=O)CCNC(=O)[C@H](O)C(C)(C)COP(=O)(O)OP(=O)(O)OC[C@H]1O[C@@H](n2cnc3c(N)ncnc32)[C@H](O)[C@@H]1OP(=O)(O)O)[C@H]1CC[C@H]2[C@@H]3[C@H](O)C[C@@H]4C[C@H](O)CC[C@]4(C)[C@H]3C[C@H](O)[C@]12C (stereo partly drawn) [Cholyl-22-OH-CoA]
[1]
  LC-MS/MS of product; NADH formation at 340 nm: Hsd4A effectively sequestered the CtShy product to form cholyl-22-oxo-CoA
[2]
  Km: 8.12 ± 0.477 µM

## C[C@H](/C=C/C(=O)SCCNC(=O)CCNC(=O)[C@H](O)C(C)(C)COP(=O)(O)OP(=O)(O)OC[C@H]1O[C@@H](n2cnc3c(N)ncnc32)[C@H](O)[C@@H]1OP(=O)(O)O)[C@H]1CC[C@H]2[C@@H]3[C@H](O)C[C@@H]4C[C@H](O)CC[C@]4(C)[C@H]3C[C@H](O)[C@]12C [cholyl-enoyl-CoA]
[3]
  LC-MS/MS of products; Hsd4A-coupled NADH end point: Hsd4A effectively sequestered the CtShy product to form cholyl-22-oxo-CoA

## CtShy–CtSal complex (CtSal steroid aldolase activity) (Comamonas testosteroni KF-1; R216A)
[4]
  Km: 41.4 ± 1.29 µM
  kcat: 11.6 ± 0.15 s⁻¹
  kcat/Km: 281000 ± 876 M⁻¹ s⁻¹
